The values that follow are results of earlier work, collected in patent publication US6323203A, “Composition and method for treating diabetes” (Beyer; Camille F., priority 2000, dated 2001).

The subject of data set [1] is nicotinic acid vasomotor and antilipolytic effect. The settings on record: cited from earlier work; for effect on vasomotor and antilipolytic effect of nicotinic acid: prior administration of the prostaglandin synthesis inhibitor.
The conditions of data set [2]: oral glucose tolerance test; cited from earlier work.
For data set [3] the following is noted: in vivo; cited from earlier work.

Molecules are shown by their SMILES.

Consider `CC(=O)Oc1ccccc1C(=O)O` [aspirin], for which, in data set [1], the “effect on vasomotor and antilipolytic effect of nicotinic acid” value is listed as “abolish the vasomotor, but not the antilipolytic effect of nicotinic acid”.
Turning to `NS(=O)(=O)c1cc2c(cc1Cl)NCNS2(=O)=O` [hydrochlorothiazide], the “effect on serum glucose and insulin” value in data set [2] was “increased serum glucose and insulin concentrations”. In addition, the effect on potassium result in data set [3] was “kaliuresis”.
As to `COc1ccc2c(c1)c(CC(=O)O)c(C)n2C(=O)c1ccc(Cl)cc1` [indomethacin], the “effect on vasomotor and antilipolytic effect of nicotinic acid” value in data set [1] is reported as “abolish the vasomotor, but not the antilipolytic effect of nicotinic acid”.
Take `O=C(O)c1cccnc1` [nicotinic acid]: the use in diabetics result in data set [1] (Molnar 1964) is reported as “contraindicated for diabetics”. Further, in data set [1] (in vivo), the “effect on triglyceride hydrolysis to FFA and glycerol” value is “inhibits triglyceride hydrolysis to FFA and glycerol”. Also, in data set [1] (nicotinic acid prescribed in patient care), the “cutaneous vasomotor reaction of nicotinic acid, consequence in patient care” value is “sufficiently undesirable as to be the principal cause for lack of compliance”. In addition, in data set [1] (nicotinic acid), the “effect on blush area” value is “transiently stimulate”; the “effect on plasma concentrations of nonesterified fatty acids” value is on record as “reduce”; the “onset of cutaneous reaction relative to peak serum concentration” value was “the onset preceded peak serum PZA concentrations, as is the case also for the cutaneous reactions associated with nicotinic acid”.
